The values below come from patent publication US6444681B1, “Methods and compositions for treating Raynaud's Phenomenon and scleroderma” (The Ohio State University Research Foundation, priority 2000, dated 2002).

A word on the Kd: it is the equilibrium constant for the complex coming apart.

Test [1] deals with Mouse Tail Artery. Nature of the test: Antagonism of UK 14,304-induced vasoconstriction in isolated pressurised distal mouse tail artery. In kind it is cell-based. The following applies: for Kd: versus UK 14,304, distal tail artery; for effect on vasoconstrictor response to UK 14,304: cold (28° C.), ARC 0239 50 nM, MK912 3×10^−10M; for effect on vasoconstrictor response to UK 14,304 / effect on vasoconstriction to the α2-AR agonist UK 14,304: BRL 44408 100 and 1000 nM; for effect on vasoconstriction to the α2-AR agonist UK 14,304: warm temperatures (37° C.), ARC 239 50 nM, MK 912 0.3 nM; for −log KD: n=4. The source says: Male mice (C57BL6) were euthanized by CO2 asphyxiation. Proximal and/or distal segments of tail artery were then rapidly removed and placed in cold Krebs-Ringer bicarbonate solution (in mM): 118.3 NaCl, 4.7 KCl, 1.2 MgSO4, 1.2 KH2PO4, 2.5 CaCl2, 25.0 NaHCO3, 11. glucose (control solution). The small arteries were cannulated at both ends with glass micropipettes, secured using 12-0 nylon monofilament suture and placed in a microvascuiar chamber (Living Systems, Burlington, Vt.). The arteries were maintained at a constant transmural pressure of 60 mmHg in the absence of flow. The chamber was superfused with control solution and maintained at 37° C., pH 7.4, and gassed with 16% O2-5% CO2-balance N2. The chamber was placed on the stage of an inverted microscope (X20, Nikon TMS-F, Japan) connected to a video camera (Panasonic, CCTV camera, Japan). The vessel image was projected onto a video monitor and the internal diameter continuously determined by a video dimension analyzer (Living Systems Instrumentation, Burlington Vt.) and monitored using a BIOPAC (Santa Barbara, Calif.) data acquisition system (Gateway Dimensions Pentium Computer).
Small arteries were allowed to equilibrate for 30-40 min at a transmural pressure (PTM) of 60 mmHg before addition of α1 and α2-AR agonists and antagonists. Concentration-effect curves to the selective α1-AR agonist, phenylephrine, or the selective α2-AR agonist, UK 14,304 (brimonidine, 5-bromo-N-(4,5-dihydro-1H-imidazol-2-yl)-6-quinoxalinamine) were generated by increasing the concentration of the agonists in half-log increments, once the constriction to the previous concentration had stabilized. Following completion of the concentration-effect curve, the influence of the agonists was terminated by repeatedly exchanging the buffer solution and allowing the artery to return to its stable baseline level.
To evaluate the effect of selective α2-AR antagonists on vasoconstriction, concentration-effect curves to UK 14,304 were determined under control conditions and in the presence of the selective α2A-AR antagonist, BRL 44408 (100 and 1000 nM), the selective α2B-AR antagonist ARC 0239 (50 nM) or the selective α2C-AR antagonist MK 912 (0.3 nM) (Table 1). When these receptor antagonists were used, the preparations were incubated for 30 min with the drugs prior to, and also during, exposure of the arteries to the agonists. When analyzing the influence of cold on α-AR responsiveness, the temperature of the superfusate was decreased to 28° C. for 30 min prior to commencing a concentration effect curve to the constrictor agonists. This provides sufficient time for the effect of cold on adrenergic reactivity to stabilize.
Vasomotor responses were expressed as a percentage change in internal diameter (ID) prior to administrating the agent. Because of the phasic behavior of the vasomotion in distal. tail arteries, the signal was electronically averaged (BIOPAC software, smoothing factor of 2000) in order to obtain diameter measurements. Functional data is expressed as means±SEM for n number of experiments, where n equals the number of animals from which blood vessels were studied. Antagonist dissociation constants (KD) were determined either from Arunlakshana and Schild plots or according to the formula: KD=[Ant]/(CR-1), where [Ant] is the concentration of antagonist, and CR the ratio of agonist-concentrations producing equal responses in the presence and absence of the antagonist. […] Statistical evaluation of the data was performed by Student's t-test for either paired or unpaired observations. When more than two means were compared, analysis of variance was used. If a significant F value was found, Scheffe's test for multiple comparisons was employed to identify differences among groups. Values were considered to be statistically different when P was less than 0.05.

Test [2] deals with T1, α-2B (Homo sapiens, UniProt P18089).
T1 sequence (P18089 1-450): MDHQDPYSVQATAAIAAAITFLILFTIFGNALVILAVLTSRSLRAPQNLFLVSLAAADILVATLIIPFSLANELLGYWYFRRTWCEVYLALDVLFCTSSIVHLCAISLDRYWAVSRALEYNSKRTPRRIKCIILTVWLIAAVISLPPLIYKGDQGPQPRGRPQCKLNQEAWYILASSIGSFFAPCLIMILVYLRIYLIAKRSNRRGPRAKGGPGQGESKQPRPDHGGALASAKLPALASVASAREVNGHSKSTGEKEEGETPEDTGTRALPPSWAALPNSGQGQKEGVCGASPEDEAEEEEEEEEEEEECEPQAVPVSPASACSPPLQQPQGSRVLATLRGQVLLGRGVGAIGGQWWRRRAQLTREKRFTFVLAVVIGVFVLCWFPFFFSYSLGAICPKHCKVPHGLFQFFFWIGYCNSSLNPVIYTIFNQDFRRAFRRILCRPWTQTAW
The following applies: cited from earlier work.

For test [3], the target named is T2, α-2C (Homo sapiens, UniProt P18825).
T2 sequence (P18825 1-462): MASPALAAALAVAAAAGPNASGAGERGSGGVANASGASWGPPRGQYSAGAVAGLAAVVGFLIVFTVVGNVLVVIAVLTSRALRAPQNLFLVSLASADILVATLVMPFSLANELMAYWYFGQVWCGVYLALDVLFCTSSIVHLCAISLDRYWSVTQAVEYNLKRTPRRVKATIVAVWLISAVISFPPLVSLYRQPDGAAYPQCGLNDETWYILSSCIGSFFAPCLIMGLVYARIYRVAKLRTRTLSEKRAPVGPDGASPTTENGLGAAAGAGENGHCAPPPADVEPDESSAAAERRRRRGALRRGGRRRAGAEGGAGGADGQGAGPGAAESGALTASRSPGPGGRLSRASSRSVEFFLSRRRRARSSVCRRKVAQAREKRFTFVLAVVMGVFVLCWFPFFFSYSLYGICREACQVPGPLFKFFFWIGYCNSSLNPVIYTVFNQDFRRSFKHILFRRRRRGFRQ
The following applies: cited from earlier work.

Test [4] has as its target T3, α-2A (Homo sapiens, UniProt P08913).
T3 sequence (P08913 1-465): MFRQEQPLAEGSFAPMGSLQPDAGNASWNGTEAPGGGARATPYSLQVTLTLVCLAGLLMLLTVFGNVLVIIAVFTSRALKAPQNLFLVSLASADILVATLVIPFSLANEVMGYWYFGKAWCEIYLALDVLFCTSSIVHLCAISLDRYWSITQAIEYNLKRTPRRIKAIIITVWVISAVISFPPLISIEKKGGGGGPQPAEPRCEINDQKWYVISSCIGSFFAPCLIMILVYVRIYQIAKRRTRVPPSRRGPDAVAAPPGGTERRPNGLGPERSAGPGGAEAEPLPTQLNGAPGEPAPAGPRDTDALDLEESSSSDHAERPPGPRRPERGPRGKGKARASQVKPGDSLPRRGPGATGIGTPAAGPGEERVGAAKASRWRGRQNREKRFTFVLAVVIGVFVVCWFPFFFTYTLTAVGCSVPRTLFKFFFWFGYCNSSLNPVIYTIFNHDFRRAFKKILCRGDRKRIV
The following applies: cited from earlier work.

For test [5], the system named is control and SSc arterioles. The experiment in a line: Agonist-induced vasoconstriction in human dermal arterioles from control and SSc subjects. The following applies: for Emax: Homo sapiens; for constriction: 1 μM of the agonist. It counts as cell-based. The source says: Skin biopsies (6 mm punch) were obtained from the same location on the medial aspect on the upper arm of patients and control subjects. Eleven patients with diffuse cutaneous SSc were studied: nine female and two male. Their average age was 49 years old (range 33 to 69) and they had SSc for an average of 4 years (range 1 to 9 years from first physician diagnosis of SSc). SSc patients were recruited from the Johns Hopkins and University of Maryland Scleroderma Center. All patients met the American College of Rheumatology criteria for a diagnosis of SSc. Biopsy of the skin was performed in the upper arm in an area considered to have normal skin thickness determined by clinical palpation (clinically-uninvolved skin). Patients with overlap syndromes (e.g. lupus) were excluded. Patient medications varied between individuals: anti-inflammatory /immunosuppressant, 4 patients on prednisone, 1 on methotrexate, 1 on cyclophosphamide, and 1 on D-penicillamine; gastrointestinal, 5 on omeprazole, 3 on cisapride, 2 on ranitidine, 1 on lansoprazole; angiotensin converting enzyme inhibitors, 3 on enalapril, 1 on lisinopril; angiotensin receptor antagonists, 1 on losartin, 1 on valsartin; calcium antagonists, 2 on nifedipine, 1 on verapamil, 1 on amlodipine, 1 on diltiazem; α1-adrenergic receptor antagonists, 1 on terazosin. Vasoconstrictor responses to the α1-adrenergic receptor (α1-AR) agonist, phenylephrine, were not included for the patient receiving terazosin. Eight normal subjects were analyzed: six female and two males with an average age of 50 years old (range 38 to 62). All patients and volunteers gave informed consent and the study was approved by the Johns Hopkins University human subjects IRB committee.
Arterioles were dissected from the deep dermal plexus of the biopsies and any side branches tied. […] The arterioles were cannulated with glass micropipettes and placed in a microvessel chamber as previously describe. The arterioles were maintained in no-flow state at a constant transmural pressure (PTM)of 40 mmHg. The chamber was superfused with buffer solution (37° C., pH 7.4, gassed with 16% O2-5% CO2-balance N2) and placed on stage of an inverted microscope for continuous monitoring of internal diameter using a video camera and video dimension analyzer.
Vasoconstriction was assessed in response to: i) KCl (15 to 60 mM), ii) the selective α1-AR agonist, phenylephrine (0.01 to 1 μM) (SIGMA, St Louis, Mo.), or iii) the selective α2-AR agonist, UK 14,304 (1 to 100 nM) (brimonidine, 5-bromo-N-(4,5-dihydro-1H-imidazol-2-yl)-6-quinoxalinamine, RBI, Natick, Mass.). Responses to UK 14,304 were also evaluated following denudation of the endothelium, achieved by carefully placing a wire (70μdiameter) through the vessel lumen. Endothelium-removal was confirmed by histology and by loss of response to the endothelial stimuli acetylcholine or bradykinin.
Responses were expressed as a percentage change in baseline diameter. Data is expressed as means±SEM for n number of experiments, where n equals the number of subjects from which blood vessels were studied. Concentration-effect curves were analyzed by comparing: i) maximal responses (vasoconstriction or dilatation), and ii) the area under the curve (AUC). Statistical evaluation of the data was performed using paired or unpaired t-tests. Responses were considered to be statistically different when P was less than 0.05.

For test [6], the system named is mouse tail arteries. The experiment in a line: Agonist-induced vasoconstriction in isolated mouse tail artery, with influence of cold. In kind it is cell-based. The following applies: for constriction of proximal and distal segments of mouse tail arteries: 10^−9 to 3×10^−7M, 37° C.; for influence of cold on the constrictor response to the agonist: distal segments, 28° C. versus 37° C.
Procedure: Small arteries were allowed to equilibrate for 30-40 min at a transmural pressure (PTM) of 60 mmHg before addition of α1 and α2-AR agonists and antagonists. […] Following completion of the concentration-effect curve, the influence of the agonists was terminated by repeatedly exchanging the buffer solution and allowing the artery to return to its stable baseline level.
Vasomotor responses were expressed as a percentage change in internal diameter (ID) prior to administrating the agent. Because of the phasic behavior of the vasomotion in distal. tail arteries, the signal was electronically averaged (BIOPAC software, smoothing factor of 2000) in order to obtain diameter measurements. Functional data is expressed as means±SEM for n number of experiments, where n equals the number of animals from which blood vessels were studied. Antagonist dissociation constants (KD) were determined either from Arunlakshana and Schild plots or according to the formula: KD=[Ant]/(CR-1), where [Ant] is the concentration of antagonist, and CR the ratio of agonist-concentrations producing equal responses in the presence and absence of the antagonist. […] Statistical evaluation of the data was performed by Student's t-test for either paired or unpaired observations. […]

Setting [7] is: 28° C. (cold), read-out: KD Mouse Tail Artery 28° C.
The mark [8] stands for this setting: 37° C. (warm), read-out: KD Mouse Tail Artery 37° C.

Where two headings read alike, the source gives them in different places.

With `COc1ccccc1N1CCN(CCN2C(=O)c3ccccc3C(C)(C)C2=O)CC1` [ARC 239], the Kd is above 0.05 µM in test [1] (setting [7]); above 0.05 µM in test [1] (setting [8]); 0.0046 µM in test [2]; 0.051 µM in test [3]; 0.256 µM in test [4]. Besides, the “expected shift in concentration-effect curves generated by α2B-AR stimulation” value in test [1] (based on the Table 1 KD, antagonist at 50 nM) is given as around 10 fold. Also, the “effect on vasoconstrictor response to UK 14,304” value in test [1] is given as “not inhibited”. For the same molecule, the “effect on vasoconstriction to the α2-AR agonist UK 14,304” value in test [1] is given as “not inhibited”.

Take `CC1c2ccccc2CN1CC1=NCCN1` (stereo not shown) [BRL 44408]: the “−log KD” value was 7.54 ± 0.10 in test [1] (28° C. (cold)); 7.69±0.13 in test [1] (37° C., Arunlakshana and Schild plot). In addition, the dissociation constant Kd in test [1] (setting [7]) is 0.029 µM; in test [1] (setting [8]), 0.02 µM; in test [2], 0.174 µM; in test [3], 0.187 µM; in test [4] it was 0.013 µM. The “effect on cold-induced amplification of the α2-AR response” value in test [1] (28° C. versus 37° C., UK 14,304) was “did not reduce”. Also, the “effect on vasoconstrictor response to UK 14,304” value in test [1] is “reduced”. In addition, the “effect on vasoconstriction to the α2-AR agonist UK 14,304” value in test [1] is reported as “inhibited”.

As for `Brc1c(NC2=NCCN2)ccc2nccnc12` [UK 14,304, 5-bromo-N-(4,5-dihydro-1H-imidazol-2-yl)-6-quinoxalinamine], the Emax worked out at 67 ± 4% in test [5] (SSc arterioles with endothelium, 1-100 nM, read-out: maximal response to the agonist (constriction)); 25 ± 5% in test [5] (control arterioles with endothelium, 1-100 nM, read-out: maximal response to the agonist (constriction)); 67 ± 10% in test [5] (endothelium-denuded SSc arterioles, read-out: maximal response (constriction)); 25 ± 7% in test [5] (endothelium-denuded control arterioles, read-out: maximal response (constriction)). The “constriction of proximal and distal segments of mouse tail arteries” value in test [6] is “caused concentration-dependent constriction”. Further, the “influence of cold on the constrictor response to the agonist” value in test [6] is “dramatically and reversibly increased”.

As to `CNC[C@H](O)c1cccc(O)c1` [phenylephrine], the constriction in test [5] (SSc arterioles) is 45±7%; in test [5] (control arterioles), 45±8%. In addition, the “constriction of proximal and distal segments of mouse tail arteries” value in test [6] is reported as “caused concentration-dependent constriction”. Moreover, the “influence of cold on the constrictor response to the agonist” value in test [6] is reported as “did not affect”.
